# Results reported in US11407738B2 (Achillion Pharmaceuticals, Inc., priority 2015, dated 2022).
# Target: Human Factor D (Homo sapiens (Human), UniProt P00746)
# Assay: Human Factor D assay
# Format: biochemical
# Details: Table 3; Factor D inhibition, substrate Z-L-Lys-SBzl
# Method: Human Factor D (purified from human serum, Complement Technology, Inc.) at 80 nM final concentration is incubated with test compound at various concentrations for 5 min at room temperature in 50 mM Tris, 1M NaCl, pH 7.5. A synthetic substrate Z-L-Lys-SBzl and DTNB (Ellman's reagent) are added to final concentrations of 100 μM each. […] IC50 values are calculated by nonlinear regression of complement Factor D reaction rates as a function of test compound concentration.
# Sequence of Human Factor D (P00746 26-253): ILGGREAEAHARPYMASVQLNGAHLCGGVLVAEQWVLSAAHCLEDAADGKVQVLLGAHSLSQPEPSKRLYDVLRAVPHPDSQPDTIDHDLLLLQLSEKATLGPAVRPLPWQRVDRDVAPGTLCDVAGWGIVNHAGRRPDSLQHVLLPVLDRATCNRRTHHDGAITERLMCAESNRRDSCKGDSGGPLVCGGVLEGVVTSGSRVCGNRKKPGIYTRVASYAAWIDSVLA
row,SMILES,IC50 [µM]
1,"CO[C@@H]1CO[C@H]2[C@@H]1OC[C@H]2Oc1ncc(-c2ccc3c(c2)c(C(C)=O)cn3CC(=O)N2C[C@H](F)C[C@H]2C(=O)Nc2cccc(-c3ccccc3Cl)c2F)cn1 [Compound 503, (2S,4R)-1-(2-(3-Acetyl-5-(2-((3R,3aR,6R,6aR)-6-methoxyhexahydrofuro[3,2-b]furan-3-yloxy)pyrimidin-5-yl)-1H-indol-1-yl)acetyl)-N-(2′-chloro-2-fluorobiphenyl-3-yl)-4-fluoropyrrolidine-2-carboxamide]",< 1
2,"CC(=O)c1nn(CC(=O)N2C[C@H](F)C[C@H]2C(=O)OCc2cccc(Cl)c2F)c2ccc(-c3cnc(C)nc3)cc12 [Compound 515, 3-Chloro-2-fluorobenzyl (2S,4R)-1-(2-(3-acetyl-5-(2-methylpyrimidin-5-yl)-1H-indazol-1-yl)acetyl)-4-fluoropyrrolidine-2-carboxylate]",1 to 10
3,CC(=O)c1cn(CC(=O)N[C@H](C(=O)Nc2cccc(-c3ccccc3Cl)c2F)[C@@H](C)O)c2ccc(-c3cnc(C)nc3)cc12 [Compound 500],< 1
4,"CC(=O)c1nn(CC(=O)N2C[C@H](F)C[C@H]2C(=O)Nc2cccc(-c3ccc4scnc4c3)c2F)c2ccc(-c3cnc(C)nc3)cc12 [Compound 520, (2S,4R)-1-(2-(3-acetyl-5-(2-methylpyrimidin-5-yl)-1H-indazol-1-yl)acetyl)-N-(3-(benzo[d]thiazol-5-yl)-2-fluorophenyl)-4-fluoropyrrolidine-2-carboxamide]",< 1
5,"CO[C@@H]1CO[C@H]2[C@@H]1OC[C@H]2Oc1ncc(-c2ccc3c(c2)c(C(C)=O)cn3CC(=O)N2C[C@H](F)C[C@H]2C(=O)Nc2cccc(Br)n2)cn1 [Compound 508, (2S,4R)-1-(2-(3-Acetyl-5-(2-((3R,3aR,6R,6aR)-6-methoxyhexahydrofuro[3,2-b]furan-3-yloxy)pyrimidin-5-yl)-1H-indol-1-yl)acetyl)-N-(6-bromopyridin-2-yl)-4-fluoropyrrolidine-2-carboxamide]",< 1

# Same assay, conditions: Table 4; Factor D inhibition, substrate Z-L-Lys-SBzl
row,SMILES,IC50 [µM]
1,"COC(=O)[C@@H]1C[C@@H](F)CN1C(=O)Cn1nc(C(C)O)c2cc(-c3cnc(C)nc3)ccc21 (stereo partly drawn) [Compound 633, Methyl (2S,4R)-4-fluoro-1-(2-(3-(1-hydroxyethyl)-5-(2-methylpyrimidin-5-yl)-1H-indazol-1-yl)acetyl)pyrrolidine-2-carboxylate]",> 10
2,"Cc1cccc(NC(=O)[C@@H]2CCC(F)CCN2C(=O)Cn2cc(C(N)=O)c3cc(-c4cnc(C)nc4)ccc32)n1 (stereo partly drawn) [Compound 578, 1-(2-((2S)-5-Fluoro-2-((6-methylpyridin-2-yl)carbamoyl)azepan-1-yl)-2-oxoethyl)-5-(2-methylpyrimidin-5-yl)-1H-indole-3-carboxamide]",> 10
3,"CC[C@H](C(=O)Nc1cccc(Br)n1)N(C)C(=O)Cn1nc(C(C)=O)c2cc(-c3cnc(C)nc3)ccc21 [Compound 597, (R)-2-(2-(3-acetyl-5-(2-methylpyrimidin-5-yl)-1H-indazol-1-yl)-N-methylacetamido)-N-(6-bromopyridin-2-yl)butanamide]",> 10
4,"CC(=O)c1nn(CC(=O)N2C[C@H](F)C[C@H]2[C@H](O)Cc2cccc(Br)n2)c2ccc(-c3cnc(C)nc3)cc12 [Compound 540, 2-(3-Acetyl-5-(2-methylpyrimidin-5-yl)-1H-indazol-1-yl)-1-((2S,4R)-2-((R)-2-(6-bromopyridin-2-yl)-1-hydroxyethyl)-4-fluoropyrrolidin-1-yl)ethanone]",1 to 10
5,"CC(=O)c1nn(CC(=O)NCc2ccccc2CC(=O)O)c2ccc(-c3cnc(C)nc3)cc12 [Compound 536, 2-(2-((2-(3-acetyl-5-(2-methylpyrimidin-5-yl)-1H-indazol-1-yl)acetamido)meth-yl)phenyl)acetic acid]",> 10
6,"Cc1cc2ncc(-c3nc4c(s3)c(C(N)=O)nn4CC(=O)N3C[C@H](F)C[C@H]3C(=S)NC3CCC(c4cc5sccc5s4)C3)cn2n1 (stereo partly drawn) [Compound 640, 1-(2-((2S,4R)-4-fluoro-2-((3-(thieno[3,2-b]thiophen-2-yl)cyclopentyl)carba-mothioyl)pyrrolidin-1-yl)-2-oxoethyl)-5-(2-methylpyrazolo[1,5-a]pyrimidin-6-yl)-1H-pyrazolo[3,4-d]thiazole-3-carboxamide]",> 10
7,"COc1cc(CC(=O)N2C[C@H](F)C[C@H]2C(=O)Nc2cccc(-c3ccccc3Cl)c2F)cc(-c2cnc(C)nc2)c1 [Compound 636, (2S,4R)—N-(2′-chloro-2-fluoro-[1,1′-biphenyl]-3-yl)-4-fluoro-1-(2-(3-methoxy-5-(2-methylpyrimidin-5-yl)phenyl)acetyl)pyrrolidine-2-carboxamide]",< 1
8,"CC(=O)c1nn(CC(=O)N2C[C@H](F)C[C@H]2C(=O)Nc2cccc(Br)n2)c2ccc(N3CCn4c(nnc4C(F)(F)F)C3)cc12 [Compound 618, (2S,4R)-1-(2-(3-acetyl-5-(3-(trifluoromethyl)-5,6-dihydro-[1,2,4]triazolo[4,3-a]pyrazin-7(8H)-yl)-1H-indazol-1-yl)acetyl)-N-(6-bromopyridin-2-yl)-4-fluoropyrrolidine-2-carboxamide]",< 1
9,CC(=O)c1cc(CC(=O)N2C[C@H](F)C[C@H]2C(=O)Nc2cccc(Br)n2)n2ccc(-c3cnc(C)nc3)cc12 [Compound 643],< 1
10,"Cc1cccc(NC(=O)[C@@H]2CCC(F)CCN2C(=O)Cn2cc(C(N)=O)c3cc(-c4ccc(F)nc4)ccc32)n1 (stereo partly drawn) [Compound 590, 1-(2-((2S)-5-Fluoro-2-((6-methylpyridin-2-yl)carbamoyl)azepan-1-yl)-2-oxoethyl)-5-(6-fluoropyridin-3-yl)-1H-indole-3-carboxamide]",> 10
11,"CC(=O)c1nn(CC(=O)N2CCC[C@@H](CNC(=O)c3ncc(Br)s3)C2)c2ccc(-c3cnc(C)nc3)cc12 [Compound 548, (S)—N-((1-(2-(3-Acetyl-5-(2-methylpyrimidin-5-yl)-1H-indazol-1-yl)acetyl)piperidin-3-yl)methyl)-5-bromothiazole-2-carboxamide]",> 10
12,"C/C(=N\O)c1nn(CC(=O)N2C[C@H](F)C[C@H]2C(=O)Nc2cccc(Br)n2)c2ccc(-c3cnc(C)nc3)cc12 [Compound 555, (2S,4R)—N-(6-Bromopyridin-2-yl)-4-fluoro-1-(2-(3-((E)-1-(hydroxyimino)ethyl)-5-(2-methylpyrimidin-5-yl)-1H-indazol-1-yl)acetyl)pyrrolidine-2-carboxamide]",< 1
13,"CC(=O)c1nn(CC(=O)N2C[C@H](F)C[C@H]2c2nnc(-c3cccc(Cl)c3F)o2)c2ccc(-c3cnc(C)nc3)cc12 [Compound 574, 2-(3-Acetyl-5-(2-methylpyrimidin-5-yl)-1H-indazol-1-yl)-1-((2S,4R)-2-(5-(3-chloro-2-fluorophenyl)-1,3,4-oxadiazol-2-yl)-4-fluoropyrrolidin-1-yl)ethan-1-one]",1 to 10
14,"Cc1cccc(C[C@@H](O)[C@H]2C[C@@H](F)CN2C(=O)Cn2cc(C(N)=O)c3cc(-c4cnc5cc(C)nn5c4)ccc32)n1 [Compound 611, 1-(2-((2R,4R)-4-Fluoro-2-((R)-1-hydroxy-2-(6-methylpyridin-2-yl)ethyl)pyrrolidin-1-yl)-2-oxoethyl)-5-(2-methylpyrazolo [1,5-a]pyrimidin-6-yl)-1H-indole-3-carboxamide]",> 10
15,"CC(=O)c1nn(CC(=O)N2C[C@H](F)C[C@H]2CC(=O)O)c2ccc(-c3cnc(C)nc3)cc12 [Compound 577, 2-((2R,4R)-1-(2-(3-Acetyl-5-(2-methylpyrimidin-5-yl)-1H-indazol-1-yl)acetyl)-4-fluoropyrrolidin-2-yl)acetic Acid]",> 10
16,"Cc1cccc(NC(=O)[C@@H]2CCC(F)CCN2C(=O)Cn2cc(C(N)=O)c3cc(-c4ccc5ccccc5c4)ccc32)n1 (stereo partly drawn) [Compound 594, 1-(2-((2S)-5-Fluoro-2-((6-methylpyridin-2-yl)carbamoyl)azepan-1-yl)-2-oxoethyl)-5-(naphthaalen-2-yl)-1H-indole-3-carboxamide]",> 10
17,"Cc1cccc(NC(=O)[C@@H]2CCC(F)CCN2C(=O)Cn2cc(C(N)=O)c3cc(-c4cnc5cc(C)nn5c4)ccc32)n1 (stereo partly drawn) [Compound 614, 1-(2-((2S)-5-Fluoro-2-((6-methylpyridin-2-yl)carbamoyl)azepan-1-yl)-2-oxoethyl)-5-(2-methylpyrazolo[1,5-a]pyrimidin-6-yl)-1H-indole-3-carboxamide]",> 10
18,"CCOP(=O)(OCC)OC[C@@]12C[C@@H]1N(C(=O)Cn1nc(C(C)=O)c3cc(-c4cnc(C)nc4)ccc31)[C@H](C(=O)Nc1cccc(Br)n1)C2 [Compound 581, ((1S,3S,5R)-2-(2-(3-Acetyl-5-(2-methylpyrimidin-5-yl)-1H-indazol-1-yl)acetyl)-3-(6-bromopyridin-2-ylcarbamoyl)-2-azabicyclo[3.1.0]hexan-5-yl)methyl Diethyl Phosphate]",1 to 10
19,"COc1ccc(-c2ccc3c(c2)c(C(N)=O)cn3CC(=O)N2CCC(F)CC[C@H]2C(=O)Nc2cccc(C)n2)cn1 (stereo partly drawn) [Compound 596, 1-(2-((2S)-5-Fluoro-2-((6-methylpyridin-2-yl)carbamoyl)azepan-1-yl)-2-oxoethyl)-5-(6-methoxypyridin-3-yl)-1H-indole-3-carboxamide]",> 10
20,"CC(=O)c1nn(CC(=O)N2C[C@H](F)C[C@H]2C(=O)Nc2nc(Br)ccc2C)c2ccc(-c3cnc(N)nc3)cc12 [Compound 553, (2S,4R)-1-(2-(3-acetyl-5-(2-aminopyrimidin-5-yl)-1H-indazol-1-yl)acetyl)-N-(6-bromo-3-methylpyridin-2-yl)-4-fluoropyrrolidine-2-carboxamide]",< 1
21,"Cc1cccc(NC(=O)[C@@H]2CCC(F)CCN2C(=O)Cn2cc(C(N)=O)c3cc(-c4ccc5c(c4)CC5)ccc32)n1 (stereo partly drawn) [Compound 587, 5-(1,2-Dihydrocyclobutabenzen-4-yl)-1-(2-((2S)-5-fluoro-2-(6-methylpyridin-2-ylcarbamoyl)azepan-1-yl)-2-oxoethyl)-1H-indole-3-carboxamide]",> 10
